No end group written: not given here.
Legend:
Nivolumab = test: BIACORE SPR binding to immobilized Nivolumab; conditions: 1 μM peptide
Method: 1 μM BSA was used as the negative control. The chip was regenerated by 10 mM Glycine-HCl, pH 2.5(FIG. 3E).
1 μM of various PD-1 peptides were injected over the chip for 1 min at 10 μl/min followed by 1 min dissociation and then 1 min regeneration with 10 mM Glycine-HCl, pH 2.5 for each run.

[1] = tested on: murine colon carcinoma CT26 tumor cells; test: CT26 tumor challenge in Balb/c mice immunized with PD-1 constructs; type: in vivo
Method: Immunocompetent Balb/c mice of 6-8 weeks of age were purchased from Charles River Laboratories, Wilmington, Mass. and housed in The Ohio State University's University Laboratory Animal Resources (ULAR) facilitates. Isoflurane was used to anaesthetize the animals before cells injection and termination. Pre-immune sera samples were taken from the mice then they were immunized with 100 μg of peptide emulsified in Montanide ISA 720 (Seppic, Paris, France) and nor-MDP adjuvant (N-acetyl-glucosamine-3 yl-acetyl L-alanyl-D-isoglutamine). Mice received booster immunizations 3 and 6 weeks after the first. Several test sera samples were taken from the mice (FIG. 8).
10 days after the second boost, mice were inoculated with […] murine colon carcinoma CT26 tumor cells subcutaneous on the right flank. Tumor growth was monitored three times a week and sera samples were taken weekly and upon sacrifice of the animal. Control mice on day 0 were engrated with 1×10^5 CT26 tumor cells subcutaneous and received. The animals received 150 μg injections of anti-mouse antibodies directed against PD-1. Mice were monitored and scored for the formation of palpable tumors twice weekly and sacrificed if tumors became necrotic or exceeded the predetermined size of 2,000 mm3. Tumor diameters were measured twice a week. Tumor size was calculated according to the formula: V=[(length ×width2)/2]. Tumor volumes were measured in cubic millimeters with calipers and calculated with the following formula: A×B2×0.5, where A is the largest diameter, and B is the smallest diameter. All experiments were performed in accordance with the U.S. Public Health Service Policy on Humane Care and Use of Laboratory Animals and approved by the Ohio State University Institutional Animals Care and Use Committee and detailed in the accepted protocol
To assess performance of 4 different vaccine treatments on tumor growth, tumor size was measured periodically in mice, and the results were compared to those of positive and negative controls. There were 5 mice in each treatment group, each receiving the assigned MVF-peptide and then being inoculated with 1e5 CT26 (colon) tumor cells 10 days after the final boost of the treatment. Day 14 was considered the primary time point of interest, as the investigators believed waiting until day 19 allowed the tumors too much time to grow, resulting in similar sizes at that point of the experiment. Tumor size was measured in three ways: LWW (½*length*width*width) at all time points, LWH (½*length*width*height) at all time points, and terminal tumor weight at the end of the study. The mice treated with MVF-PD-a(45), group C, were sacrificed before day 19 due to the death of one mouse, so the comparisons can only be made between tumor size at day 14. Tumor size is in units of mm3 for LWW and LWH and grams for terminal tumor weight.
Due to small sample sizes in each group and inability to assume normality, the exact Wilcoxon rank-sum test was used to check for systematic differences between the distributions of tumor size at times 14 days and 19 days (FIGS. 12A-D and Tables 7-10). P-values given are for test comparing that column's control to the respective treatment, and are two-sided to account for the possibility of tumor size being systematically larger or smaller between treatment and control. As this is preliminary data, the p-values are not adjusted for multiple comparisons. Overall, there were few instances of significant differences between the distributions of a control and a treatment.
Immunocompetent Balb/c mice (5 mice/gp) of 6-8 weeks of age were immunized with 100 μg of peptide emulsified in Montanide ISA 720 (Seppic, Paris, France) and nor-MDP adjuvant (N-acetyl-glucosamine-3 yl-acetyl L-alanyl-D-isoglutamine). […]

Substance: KLLSLIKGVIVHRLEGVE-GPSL-GAISLAPKAQIKESLRAEL-CONH2 (KLLSLIKGVIVHRLEGVEGPSLGAISLAPKAQIKESLRAEL-NH2) [MVF-PD-1 (92-110)]
- binding to immobilized Nivolumab (in words) (Nivolumab): bind
- SPR response of peptide binding to immobilized Nivolumab (Nivolumab; 1 min at 10 μl/min): 970 RU
- inhibition of tumor growth ([1]; Day 14, FIG. 15): significant inhibition of tumor growth
- median terminal tumor weight ([1]; end of study, 5 mice/group): 1.1 grams
- difference in tumor size distribution versus controls ([1]; exact Wilcoxon rank-sum test, two-sided, unadjusted): systematically smaller tumor sizes than the positive control
- median tumor size LWH, Day 19 ([1]; median, 5 mice/group): 819 mm3
- median tumor size LWW, Day 19 ([1]; median, 5 mice/group): 1080 mm3
- median tumor size LWH, Day 14 ([1]; median, 5 mice/group, ½*length*width*height): 270 mm3
- median tumor size LWW, Day 14 ([1]; median, 5 mice/group, ½*length*width*width): 384 mm3

Reference: patent US11684660B2, “Human PD1 peptide vaccines and uses thereof” (OHIO STATE INNOVATION FOUNDATION, priority 2017, dated 2023)
